Earlier results on five compounds are cited in US8137579B2, “Non-aqueous heat transfer fluid and use thereof” (priority 1993, dated 2012).

The mark [1] stands for this setting: laboratory rats, single dose, acute oral.

Read-outs that look alike come from different tables or passages of the source.

In the case of `CC(O)COC(C)COC(C)CO` (stereo not drawn) [tripropylene glycol], in the series with laboratory rats (rat, in vivo, po), the LD50 rating is given as 3.0 g/kg.

Take `OCCOCCOCCO` [triethylene glycol]: the LD50 rating in the series with laboratory rats (rat, in vivo, po) is reported as 22.0 g/kg.

As for `OCCOCCO` [Diethylene glycol], the LD50 rating in the series on laboratory rats (setting [1]) is listed as 16.6 g/kg.

In the case of `CC(O)CO` (stereo not drawn) [PG, propylene glycol], the LD50 rating with laboratory rats (setting [1]) was 33.7 g/kg.

Turning to `OCCO` [EG, ethylene glycol], the “toxic level to humans, reported as low as” value in the series with humans is reported as 0.398 g/kg. For the same compound, the LD50 rating in the series with laboratory rats (setting [1]) is recorded as 6.1 g/kg.
